Laboratory results reported in patent publication US20040235900A1, “Antimicrobial oxazolifinones with improved pharmacokinetic profile and safety advantages” (priority 2002, published 2004).
In brackets after ≈: the same amount, converted by molar mass.

Key:
[1] = system: Methicillin Resistant Staphylococcus aureus MRSA-32; assay: In-vitro MIC test (agar dilution), MRSA-32; assay type: cell-based; settings: Staphylococcus aureus, MRSA; Mueller Hinton agar, 24 hrs at 35° C.; read-out: Minimum Inhibitory Concentrations (MIC) MRSA-32
Excerpt: (§1) The test methods used for verifying the antimicrobial action of compound within the scope of this invention are essentially the same as those described in PCT WO 95/25106, U.S. Pat. No. 5,668,286 and EP 0 750, 618 B1, with the difference that the strains of the organisms used for the MIC determinations in these patents and applications are Staphylococcus aureus ATCC 25923, Staphylococcus epidermidis ATCC 12828, Streptococcus pyogenes ATCC 19615.
(§2) The in-vitro MIC methods of test compounds were determined essentially as described in PCT WO 95/25106, U.S. Pat. No. 5,668,286 and EP 0 750 618 B1.
(§3) Overnight grown cultures of S. aureus organisms in Tryptic Soya broth were diluted in Mueller Hinton Broth to give optical density matching with MacFarland tube 0.5 standard. Cultures were further diluted 1:10 in Mueller Hinton broth. Using Denley's mutipoint inoculator, 10^4 cells were deposited on Mueller Hinton agar (Difco) containing range of 2 fold dilutions of test compounds. These plates were incubated for 24 hrs at 35° C. and MIC results recorded. MIC is defined as minimum drug concentration that inhibits test organisms. For determining MIC of test compounds against Streptococcus pneumoniae, Mueller Hinton agar containing 5% sheep blood was employed.

[2] = system: Enterococcus faecalis ATCC 29212; assay: In-vitro MIC test (agar dilution), E. faecalis; assay type: cell-based; settings: ATCC29212, Mueller Hinton agar, 24 hrs at 35° C., read-out: Minimum Inhibitory Concentrations (MIC) E. faecalis
Excerpt: as §1, §2, §3

MRSA 32 = assay: Murine assay procedure (systemic MRSA 32 infection, oral treatment); assay type: in vivo, swiss mice; settings: Staphylococcus aureus; oral administration, doses 1 hr and 4 hrs after infection; MRSA 32 infected mice; percentage survival on Day 7
Description: Oxazolidinone new chemical entities (NCEs) were evaluated for their in vivo efficacy in a murine infection caused by multi-drug resistant, methicillin resistant Staphylococcus aureus strain, referred to as MRSA 32, a clinical isolate obtained from a hospitalised patient. The procedure used for the murine assay is as follows:
Four weeks old swiss mice of 18-22 gm body weight were infected with MRSA 32 strain suspended in 5% Hog gastric Mucin. The infecting dose of bacteria was set at 1-2×10^8 CFU/animal. The infecting dose was administered in 0.5 ml volume injected into peritonial cavity of mice. The treatment with oxazolidinone NCEs was started one hour after infection by administering 100-200 μl of the suspensions of oxazolidinone compounds in 5% Tween 80 by oral gavage. A repeat dose was similarly administered 3 hrs later. Each oxazolidinone NCE was tested at 2-3 different dosages in the range of 2.5 mg/kg to 20 mg/kg. In each dose group 6 mice were included. As an infection control group 12 mice were infected with MRSA 32 strain without giving any treatment. Normally untreated infected mice die within 24 hrs. due to the systemic spread of infection through out the animal body. […] For compounds affording protection of MRSA infected mice, ED50 dosages were calculated on the basis of percentage survival on Day 7 after infection.
The in-vivo ED50 values using the test compounds were determined essentially by the method as described in PCT WO 95/25106, U.S. Pat. No. 5,668,286 and EP 0 750 618 B1.

reticulocytes = assay: Myelosuppressive potential: reticulocyte counts, 14-day oral dosing; assay type: in vivo, Wistar rats
Description: A group of 6 Wistar rats (3 male and 3 female) was exposed to a representative compound of the invention viz. compound No. 4 of the invention, by oral route at a single dose of 50 mg/kg per day for 14 consecutive days. Compound No.30 of U.S. Pat. No. 5,668,286 was also subjected to the same protocol. Linezolid (LNZ) was used as a comparator drug and was administered to rats (by oral route at a dose of 2×25 mg/kg per day for 14 consecutive days. Vehicle treated controls were maintained using identical experimental conditions. The treated as well as control rats were sacrificed 24 hr after the last dose.
A second parameter measured was the change in reticulocyte count, for which the following method was used.
Blood was collected on day 15 (24 hours after the last dose administration) from all the treated as well as control rats by retro-orbital sinus puncture using clean glass rat capillary tubes. […]
3 slides/animal were prepared according to NCCLS staining procedure for reticulocyte staining and counting. […] The percentage presence of reticulocyte was determined in 1000 erythrocytes and was expressed in terms of percentage of reticulocytes over erythrocytes. […]
Values in each of the first two columns above represent ratio of relative weight (calculated organ to body weight ratio) of spleen or thymus in drug treated animals v/s control animals. […]

Row | SMILES | MIC [1] [µg/mL] | MIC [2] [µg/mL] | ED50 (MRSA 32) [mg/kg] | change in ratio of percentage reticulocytes of treated animal versus control animal (in words) (reticulocytes; rat, in vivo, po) | Ratio of % reticulocytes Retics (treated animal versus control animal) (reticulocytes; Wistar rats, oral, 14 consecutive days, 50 mg/kg per day (LNZ 2×25 mg/kg per day), blood on day 15, ratio less than 0.75 indicates myelosuppressive potential)
1 | CC(=O)NC[C@H]1CN(c2ccc(N3CCC(CC#N)CC3)c(F)c2)C(=O)O1 [Compound 4, (S)-N-{3-[4-(4-cyanomethyl-piperidin-1-yl)-3-fluoro-phenyl]-2-oxo-oxazolidin-5-ylmethyl}-acetamide] | 2 (≈ 5.34 µM) | 2 (≈ 5.34 µM) | 2.5 to 5 | no significant change | –
2 | CC(=O)NC[C@H]1CN(c2ccc(N3CCOCC3)c(F)c2)C(=O)O1 [Linezolid] | 2 (≈ 5.93 µM) | 2 (≈ 5.93 µM) | – | – | 0.43
